What was measured:
[1] = test system: Wildtype and Sam68 knockout cells; conditions: hydrogen peroxide 100 μM, 24 hours
Text: Cell death via the intrinsic pathway of apoptosis can be induced by genotoxic and oxidative stress (Roos and Kaina, 2006. Trends in molecular medicine 12, 440-450.) (Dumont et al., 1999. Oncogene 18, 747-757.).

[2] = test system: NF-κB activation in Sam68 knockout fibroblast cells; assay: IL-1β induced NF-κB activation (IκBα degradation, p65 nuclear translocation); type: cell-based, mouse; conditions: 100 ng/ml IL-1 beta
Protocol: Wild type control and Sam68 knockout fibroblast cells were treated with TNF (Recombinant human TNFα from Peprotech), and IκBα degradation and nuclear translocation of NF-κB protein were used to monitor the activation of their NF-κB pathway (IκBα antibody was from Santa Cruz Biotechnology; assessment of NF-κB nuclear translocation, cytoplasmic and nuclear extracts were prepared as described by Schreiber et al., 1989).
The Sam68 knockout fibroblast cells were treated with IL-1β (R&D Systems), another proinflammatory cytokine. […] Thus, the NF-κB activation pathway is functional in these Sam68 knockout cells, while Sam68 activity is specifically related to TNF signaling.

With OO [hydrogen peroxide] as the compound, how does the “death induction, cell morphology” value [1] read?
The value was “caused death induction in both wildtype and Sam68 knockout cells”.

For “IL-1β: proinflammatory cytokine, recombinant human IL-1 beta (R&D Systems)”, which “NF-κB activation (IκBα degradation and nuclear translocation of p65)” value [2] is on record?
The value was “remained intact”.
